Patent US20260262643A1, “HERBICIDAL BENZOXAZINES” (FMC CORPORATION, priority 2022, published 2026)

Experiments:
barnyardgrass [1] = test: Test C preemergence; assay type: in vivo, Echinochloa crusgalli; conditions: for Plant response rating, Barnyardgrass: Preemergence, 125 g ai/ha, 0 to 100 scale, 0 no effect, 100 complete control
Outline: (§1)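 Pre: seeds in loam/sand, directed soil spray. Post: 1–2 leaf plants, 2–10 cm. Cmpd in non-phytotoxic solvent + surfactant. Greenhouse 10 d; visual rating vs untreated, 0 = none, 100 = complete control.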

corn [2] = test: Test C preemergence; assay type: in vivo, Zea mays; conditions: for Corn plant response rating: 500 g ai/ha, preemergence, 0 to 100 scale (0 no effect, 100 complete control); for Plant response rating, Corn: Preemergence, 125 g ai/ha, 0 to 100 scale, 0 no effect, 100 complete control
Outline: as §1

pigweed, palmer [3] = test: Test C postemergence; assay type: in vivo, Amaranthus palmeri; conditions: 10 days, 0 to 100 scale (0 no effect, 100 complete control)
Outline: as §1

rice = test: Test D flooded paddy test; assay type: in vivo, Oryza sativa; conditions: 250 g ai/ha, applied to paddy water, visual rating after 13 to 14 days, scale 0 to 100 (0 no effect, 100 complete control)
Outline: (§2)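 Seedlings reached the 2-leaf stage, then pots were flooded to 3 cm over the soil surface. Compound was applied into the water, depth was maintained, and plants stayed in the greenhouse 13 to 14 days before visual scoring (0–100) relative to controls.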

ragweed [4] = test: Test C postemergence; assay type: in vivo, Ambrosia artemisiifolia; conditions: 10 days, 0 to 100 scale (0 no effect, 100 complete control)
Outline: as §1

green foxtail [5] = test: Test C postemergence; assay type: in vivo, Setaria viridis; conditions: 10 days, 0 to 100 scale (0 no effect, 100 complete control)
Outline: as §1

blackgrass [6] = test: Test C preemergence; assay type: in vivo, Alopecurus myosuroides; conditions: for Blackgrass plant response rating: 500 g ai/ha, preemergence, 0 to 100 scale (0 no effect, 100 complete control); for Plant response rating, Blackgrass: Preemergence, 125 g ai/ha, 0 to 100 scale, 0 no effect, 100 complete control
Outline: as §1

ducksalad = test: Test D flooded paddy test; assay type: in vivo, Heteranthera limosa; conditions: 250 g ai/ha, applied to paddy water, visual rating after 13 to 14 days, scale 0 to 100 (0 no effect, 100 complete control)
Outline: as §2

ryegrass, Italian [7] = test: Test C preemergence; assay type: in vivo, Lolium multiflorum; conditions: for Ryegrass, Italian plant response rating: 500 g ai/ha, preemergence, 0 to 100 scale (0 no effect, 100 complete control); for Plant response rating, Ryegrass, Italian: Preemergence, 125 g ai/ha, 0 to 100 scale, 0 no effect, 100 complete control
Outline: as §1

oat, wild [8] = test: Test C postemergence; assay type: in vivo, Avena fatua; conditions: 10 days, 0 to 100 scale (0 no effect, 100 complete control)
Outline: as §1

soybean [9] = test: Test C preemergence; assay type: in vivo, Glycine max; conditions: for Soybean plant response rating: 500 g ai/ha, preemergence, 0 to 100 scale (0 no effect, 100 complete control); for Plant response rating, Soybean: Preemergence, 125 g ai/ha, 0 to 100 scale, 0 no effect, 100 complete control
Outline: as §1

oat, wild [10] = test: Test C preemergence; assay type: in vivo, Avena fatua; conditions: for Oat, Wild plant response rating: 500 g ai/ha, preemergence, 0 to 100 scale (0 no effect, 100 complete control); for Plant response rating, Oat, Wild: Preemergence, 125 g ai/ha, 0 to 100 scale, 0 no effect, 100 complete control
Outline: as §1

ryegrass, Italian [11] = test: Test C postemergence; assay type: in vivo, Lolium multiflorum; conditions: 10 days, 0 to 100 scale (0 no effect, 100 complete control)
Outline: as §1

kochia [12] = test: Test C postemergence; assay type: in vivo, Bassia scoparia; conditions: 10 days, 0 to 100 scale (0 no effect, 100 complete control)
Outline: as §1

barnyardgrass [13] = test: Test D flooded paddy test; assay type: in vivo, Echinochloa crus-galli; conditions: 250 g ai/ha, applied to paddy water, visual rating after 13 to 14 days, scale 0 to 100 (0 no effect, 100 complete control)
Outline: as §2

corn [14] = test: Test C postemergence; assay type: in vivo, Zea mays; conditions: 10 days, 0 to 100 scale (0 no effect, 100 complete control)
Outline: as §1

wheat [15] = test: Test C postemergence; assay type: in vivo, Triticum aestivum; conditions: 10 days, 0 to 100 scale (0 no effect, 100 complete control)
Outline: as §1

pigweed, palmer [16] = test: Test C preemergence; assay type: in vivo, Amaranthus palmeri; conditions: for Pigweed, Palmer plant response rating: 500 g ai/ha, preemergence, 0 to 100 scale (0 no effect, 100 complete control); for Plant response rating, Pigweed, Palmer: Preemergence, 125 g ai/ha, 0 to 100 scale, 0 no effect, 100 complete control
Outline: as §1

blackgrass [17] = test: Test C postemergence; assay type: in vivo, Alopecurus myosuroides; conditions: 10 days, 0 to 100 scale (0 no effect, 100 complete control)
Outline: as §1

wheat [18] = test: Test C preemergence; assay type: in vivo, Triticum aestivum; conditions: for Wheat plant response rating: 500 g ai/ha, preemergence, 0 to 100 scale (0 no effect, 100 complete control); for Plant response rating, Wheat: Preemergence, 125 g ai/ha, 0 to 100 scale, 0 no effect, 100 complete control
Outline: as §1

green foxtail [19] = test: Test C preemergence; assay type: in vivo, Setaria viridis; conditions: for Foxtail, Green plant response rating: 500 g ai/ha, preemergence, 0 to 100 scale (0 no effect, 100 complete control); for Plant response rating, Foxtail, Green: Preemergence, 125 g ai/ha, 0 to 100 scale, 0 no effect, 100 complete control
Outline: as §1

galium = test: Test C postemergence; assay type: in vivo, Galium aparine; conditions: 10 days, 0 to 100 scale (0 no effect, 100 complete control)
Outline: as §1

horseweed = test: Test C postemergence; assay type: in vivo, Erigeron canadensis; conditions: 10 days, 0 to 100 scale (0 no effect, 100 complete control)
Outline: as §1

soybean [20] = test: Test C postemergence; assay type: in vivo, Glycine max; conditions: 10 days, 0 to 100 scale (0 no effect, 100 complete control)
Outline: as §1

sedge, umbrella = test: Test D flooded paddy test; assay type: in vivo, Cyperus difformis; conditions: 250 g ai/ha, applied to paddy water, visual rating after 13 to 14 days, scale 0 to 100 (0 no effect, 100 complete control)
Outline: as §2

ragweed [21] = test: Test C preemergence; assay type: in vivo, Ambrosia artemisiifolia; conditions: for Ragweed plant response rating: 500 g ai/ha, preemergence, 0 to 100 scale (0 no effect, 100 complete control); for Plant response rating, Ragweed: Preemergence, 125 g ai/ha, 0 to 100 scale, 0 no effect, 100 complete control
Outline: as §1

kochia [22] = test: Test C preemergence; assay type: in vivo, Bassia scoparia; conditions: for Kochia plant response rating: 500 g ai/ha, preemergence, 0 to 100 scale (0 no effect, 100 complete control); for Plant response rating, Kochia: Preemergence, 125 g ai/ha, 0 to 100 scale, 0 no effect, 100 complete control
Outline: as §1

barnyardgrass [23] = test: Test C postemergence; assay type: in vivo, Echinochloa crusgalli; conditions: 10 days, 0 to 100 scale (0 no effect, 100 complete control)
Outline: as §1

CCOC[C@H]1CN(C(=O)c2cc(-n3cnc(C(C)(C)C)n3)cc3c2OCCO3)c2cccc(Cl)c2O1 [Compound 388]
60: Plant response rating, Ragweed (ragweed [4]; Postemergence, 125 g ai/ha) | Ryegrass, Italian plant response rating (ryegrass, Italian [7]) | Plant response rating, Foxtail, Green (green foxtail [19]) | Ragweed plant response rating (ragweed [21]) | Plant response rating, Ragweed (ragweed [21])
. 10: Plant response rating, Corn (corn [2])
50: Plant response rating, Barnyardgrass (barnyardgrass [1]) | Plant response rating, Ragweed (ragweed [4]; 500 g ai/ha, postemergence) | Plant response rating, Ryegrass, Italian (ryegrass, Italian [7])
40: Blackgrass plant response rating (blackgrass [6]) | Plant response rating, Oat, Wild (oat, wild [8]; 500 g ai/ha, postemergence) | Oat, Wild plant response rating (oat, wild [10]) | Plant response rating, Kochia (kochia [22])
30: Plant response rating, Ryegrass, Italian (ryegrass, Italian [11]; 500 g ai/ha, postemergence) | Plant response rating, Corn (corn [14]; 500 g ai/ha, postemergence) | Plant response rating, Horseweed (horseweed; 500 g ai/ha, postemergence)
10: Corn plant response rating (corn [2]) | Plant response rating, Foxtail, Green (green foxtail [5]; Postemergence, 125 g ai/ha) | Plant response rating, Blackgrass (blackgrass [6]) | Plant response rating, Corn (corn [14]; Postemergence, 125 g ai/ha) | Plant response rating, Wheat (wheat [15]; 500 g ai/ha, postemergence) | Plant response rating, Wheat (wheat [15]; Postemergence, 125 g ai/ha) | Plant response rating, Barnyardgrass (barnyardgrass [23]; Postemergence, 125 g ai/ha)
0: Plant response rating, Rice (Flood) (rice) | Plant response rating, Ducksalad (Flood) (ducksalad) | Plant response rating, Barnyardgrass (Flood) (barnyardgrass [13]) | Plant response rating, Blackgrass (blackgrass [17]; 500 g ai/ha, postemergence) | Plant response rating, Blackgrass (blackgrass [17]; Postemergence, 125 g ai/ha) | Plant response rating, Horseweed (horseweed; Postemergence, 125 g ai/ha) | Plant response rating, Sedge, Umbrella (Flood) (sedge, umbrella)
70: Plant response rating, Galium (galium; Postemergence, 125 g ai/ha)
90: Barnyardgrass plant response rating (barnyardgrass [1]; 500 g ai/ha, preemergence, 0 to 100 scale (0 no effect, 100 complete control)) | Plant response rating, Foxtail, Green (green foxtail [5]; 500 g ai/ha, postemergence) | Soybean plant response rating (soybean [9]) | Plant response rating, Soybean (soybean [9]) | Plant response rating, Kochia (kochia [12]; 500 g ai/ha, postemergence) | Plant response rating, Kochia (kochia [12]; Postemergence, 125 g ai/ha)
100: Plant response rating, Pigweed, Palmer (pigweed, palmer [3]; 500 g ai/ha, postemergence) | Plant response rating, Pigweed, Palmer (pigweed, palmer [3]; Postemergence, 125 g ai/ha) | Pigweed, Palmer plant response rating (pigweed, palmer [16]) | Plant response rating, Pigweed, Palmer (pigweed, palmer [16]) | Foxtail, Green plant response rating (green foxtail [19]) | Plant response rating, Galium (galium; 500 g ai/ha, postemergence) | Plant response rating, Soybean (soybean [20]; 500 g ai/ha, postemergence) | Plant response rating, Soybean (soybean [20]; Postemergence, 125 g ai/ha) | Kochia plant response rating (kochia [22])
20: Plant response rating, Oat, Wild (oat, wild [8]; Postemergence, 125 g ai/ha) | Plant response rating, Oat, Wild (oat, wild [10]) | Plant response rating, Ryegrass, Italian (ryegrass, Italian [11]; Postemergence, 125 g ai/ha) | Wheat plant response rating (wheat [18]) | Plant response rating, Wheat (wheat [18]) | Plant response rating, Barnyardgrass (barnyardgrass [23]; 500 g ai/ha, postemergence)

CSc1ccc(-n2cnc(C(C)C)n2)cc1C(=O)N1C[C@H](C)Oc2c(Cl)cccc21 [Compound 391]
100: Plant response rating, Pigweed, Palmer (pigweed, palmer [3]; 500 g ai/ha, postemergence) | Plant response rating, Ryegrass, Italian (ryegrass, Italian [11]; 500 g ai/ha, postemergence) | Plant response rating, Kochia (kochia [12]; 500 g ai/ha, postemergence) | Plant response rating, Kochia (kochia [12]; Postemergence, 125 g ai/ha) | Pigweed, Palmer plant response rating (pigweed, palmer [16]) | Plant response rating, Pigweed, Palmer (pigweed, palmer [16]) | Foxtail, Green plant response rating (green foxtail [19]) | Plant response rating, Foxtail, Green (green foxtail [19]) | Plant response rating, Galium (galium; 500 g ai/ha, postemergence) | Plant response rating, Galium (galium; Postemergence, 125 g ai/ha) | Plant response rating, Soybean (soybean [20]; 500 g ai/ha, postemergence) | Plant response rating, Soybean (soybean [20]; Postemergence, 125 g ai/ha) | Kochia plant response rating (kochia [22])
45: Plant response rating, Sedge, Umbrella (Flood) (sedge, umbrella)
70: Plant response rating, Foxtail, Green (green foxtail [5]; Postemergence, 125 g ai/ha)
30: Plant response rating, Oat, Wild (oat, wild [8]; Postemergence, 125 g ai/ha) | Plant response rating, Oat, Wild (oat, wild [10]) | Plant response rating, Wheat (wheat [15]; Postemergence, 125 g ai/ha) | Wheat plant response rating (wheat [18])
80: Plant response rating, Foxtail, Green (green foxtail [5]; 500 g ai/ha, postemergence) | Blackgrass plant response rating (blackgrass [6]) | Plant response rating, Oat, Wild (oat, wild [8]; 500 g ai/ha, postemergence) | Oat, Wild plant response rating (oat, wild [10]) | Plant response rating, Blackgrass (blackgrass [17]; 500 g ai/ha, postemergence)
10: Plant response rating, Barnyardgrass (Flood) (barnyardgrass [13]) | Plant response rating, Ragweed (ragweed [21])
90: Plant response rating, Pigweed, Palmer (pigweed, palmer [3]; Postemergence, 125 g ai/ha) | Plant response rating, Ragweed (ragweed [4]; 500 g ai/ha, postemergence) | Ryegrass, Italian plant response rating (ryegrass, Italian [7]) | Soybean plant response rating (soybean [9]) | Plant response rating, Kochia (kochia [22])
60: Plant response rating, Barnyardgrass (barnyardgrass [1]) | Plant response rating, Ragweed (ragweed [4]; Postemergence, 125 g ai/ha) | Plant response rating, Corn (corn [14]; 500 g ai/ha, postemergence) | Plant response rating, Corn (corn [14]; Postemergence, 125 g ai/ha) | Plant response rating, Blackgrass (blackgrass [17]; Postemergence, 125 g ai/ha) | Plant response rating, Horseweed (horseweed; 500 g ai/ha, postemergence) | Ragweed plant response rating (ragweed [21]) | Plant response rating, Barnyardgrass (barnyardgrass [23]; 500 g ai/ha, postemergence)
40: Plant response rating, Wheat (wheat [15]; 500 g ai/ha, postemergence) | Plant response rating, Barnyardgrass (barnyardgrass [23]; Postemergence, 125 g ai/ha)
0: Plant response rating, Rice (Flood) (rice) | Plant response rating, Wheat (wheat [18]) | Plant response rating, Horseweed (horseweed; Postemergence, 125 g ai/ha)
50: Plant response rating, Blackgrass (blackgrass [6]) | Plant response rating, Soybean (soybean [9]) | Plant response rating, Ryegrass, Italian (ryegrass, Italian [11]; Postemergence, 125 g ai/ha)
20: Corn plant response rating (corn [2]) | Plant response rating, Corn (corn [2]) | Plant response rating, Ryegrass, Italian (ryegrass, Italian [7])
35: Plant response rating, Ducksalad (Flood) (ducksalad)
